Reference: patent US4250162A, “Protein binding method” (priority 1979, dated 1981)
Where “and” joins values, the source holds several entries; their conditions need not be identical. Identical values can stand only once.

Tests used:
[1] = system: cortisol rabbit antiserum; experiment: Effect of organic solvents on antiserum-coated polypropylene tubes: residual binding of radioiodinated tracer, cortisol antiserum; conditions: tracer bound after solvent 3 hours at 50° C., tracer 45 minutes at 37° C.
Description: (§1) 1 ml of petroleum ether, benzene, ether, ethyl acetate or acetone was added to a selection of cortisol, thyroxine, diphenylhydantoin and estriol rabbit antiserum-coated polypropylene tubes. The solvent level in the tubes was sufficient to immerse the antiserum coated region at the bottom of the tubes. The solvents were equilibrated with atmospheric water vapor. The solvent-containing tubes were then incubated for 3 hours at 50° C. The excess solvent was poured off and the tubes were left overnight to allow the residual solvent to evaporate. Three sets of control tubes were prepared. One set was treated with water in the same manner as the organic solvents, while another set was heated in air for the same period as the liquid-treated tubes. A final set of tubes served as an untreated control. The residual capacity of the antiserum-coated tubes to bind the respective radioiodinated tracers was determined by adding a 1 ml solution of the tracer containing 0.01 μCi to each tube containing an antiserum coating specific for that tracer, incubating for 45 minutes at 37° C., carefully decanting the tracer solution and counting the radioactivity bound to the tubes. The percent binding was calculated by dividing the bound counts by the total counts added.

[2] = system: thyroxine rabbit antiserum; experiment: Effect of organic solvents on antiserum-coated polypropylene tubes: residual binding of radioiodinated tracer, thyroxine antiserum; conditions: tracer bound after solvent 3 hours at 50° C., tracer 45 minutes at 37° C.
Description: as §1

[3] = system: diphenylhydantoin rabbit antiserum; experiment: Effect of organic solvents on antiserum-coated polypropylene tubes: residual binding of radioiodinated tracer, diphenylhydantoin antiserum; conditions: tracer bound after solvent 3 hours at 50° C., tracer 45 minutes at 37° C.
Description: as §1

estriol rabbit antiserum = experiment: Effect of organic solvents on antiserum-coated polypropylene tubes: residual binding of radioiodinated tracer, estriol antiserum; conditions: tracer bound after solvent 3 hours at 50° C., tracer 45 minutes at 37° C.
Description: as §1

[4] = system: rabbit anti-cortisol serum; experiment: Competitive radioimmunoassay of cortisol in antiserum-coated plastic tubes (125I-cortisol tracer); assay type: binding
Description: Urine samples are prepared for extraction by adding 200 microliters of a well mixed 24-hour urine sample to each of two disposable glass test tubes, one marked "S" and the other "E". The "E" tube is to be used to determine the efficiency of cortisol extraction from the sample. 10 microliters of cortisol standard serum (60 μg%) are mixed with the contents of the "E" tube, and 1.0 ml of chilled methylene chloride is then added to all tubes. The tubes are capped and their contents agitated to aid in the extraction of cortisol into the methylene chloride layer. After separation of the organic phase, duplicate 100 microliter aliquots of the bottom (methylene chloride) layer of each "S" and "E" tube are carefully removed and added to corresponding plastic test tubes coated with rabbit anti-cortisol serum on their lower inner surfaces, also correspondingly labeled "S" and "E". The methylene chloride is then evaporated from the four plastic test tubes by passing a stream of dry air or nitrogen into the tubes or by a mild warming of the extract to about 37° C. The tubes containing dry cortisol residue as prepared above are then assayed as follows.
A set of plastic test tubes coated with rabbit anti-cortisol serum is numbered 1-12. The "S" and "E" tubes from the preparatory steps above are numbered 13-14 and 15-16, respectively. 0.01 ml of the reagents shown in Table 1 below are added to the designated tubes. The cortisol serum blank which is added to each "S" and "E" tube ensures that the protein content of all tubes is equal.
1.0 ml of ^125 I-Cortisol 3-(0-carboxymethyl)oxime-L-tyrosine in pH 7.0-7.2 phosphate buffered saline having an activity of about 0.033 μCi/ml is added to each tube with gentle mixing. All tubes are incubated in a constant temperature water bath for 45 minutes at 37° C. The contents are removed from the tubes by aspirating or decanting and the tubes counted in a gamma counter with the window suitably adjusted for iodine-125.

antitestosterone = experiment: Standard curve for testosterone in antitestosterone-coated polypropylene tubes; assay type: binding; conditions: serum standards 0.1, 0.3, 1, 3 and 10 ng testosterone/ml, ethyl acetate extraction; 45 minutes at 37° C.; semi-logarithmic plot
Description: 0.6 ml of serum standards containing 0.1, 0.3, 1, 3 and 10 ng testosterone/ml were mixed with 3 ml of ethyl acetate. The phases were allowed to separate and 0.5 of the ethyl acetate layer was added to each of duplicate antitestosterone-coated tubes. After the ethyl acetate was evaporated under a stream of nitrogen, 1 ml of phosphate buffered saline at pH 7.4 was added to each tube and the testosterone residue dissolved. Five minutes later 0.1 ml of ^125 I-labeled testosterone tracer was added to each tube. After incubation for 45 minutes at 37° C., the solution was aspirated from each tube and the bound radioactivity determined in conventional fashion. […] The plot was satisfactory for use in the assay of testosterone unknowns.

SMILES | % Binding [1] [%] | % Binding [2] [%] | % Binding [3] [%] | % Binding (estriol rabbit antiserum) [%] | also measured
CCOCC [Ether, ether] | 55 | 41 | 33 | 38 | –
C[C@]12CCC(=O)C=C1CC[C@@H]1[C@@H]2[C@@H](O)C[C@@]2(C)[C@H]1CC[C@]2(O)C(=O)CO [Cortisol, cortisol] | – | – | – | – | CPM Bound ([4]; Cortisol Serum Standard, 1.0 μg%, 100 pg/0.01 ml, 45 minutes at 37° C.): 26,030 CPM and 25,305 CPM; CPM Bound ([4]; Cortisol Serum Standard, 3.0 μg%, 300 pg/0.01 ml, 45 minutes at 37° C.): 22,083 CPM and 21,629 CPM; CPM Bound ([4]; Cortisol Serum Standard, 10 μg%, 1000 pg/0.01 ml, 45 minutes at 37° C.): 14,520 CPM and 14,698 CPM; CPM Bound ([4]; Cortisol Serum Standard, 25 μg%, 2000 pg/0.01 ml, 45 minutes at 37° C.): 8,980 CPM and 9,071 CPM; CPM Bound ([4]; Cortisol Serum Standard, 60 μg%, 6000 pg/0.01 ml, 45 minutes at 37° C.): 4,824 CPM and 5,025 CPM; CPM Bound ([4]; urine extract "E" tubes 15-16 (cortisol-spiked), with Cortisol Serum Blank, 0 μg%): 8,009 CPM and 7,526 CPM; CPM Bound ([4]; urine extract "S" tubes 13-14, with Cortisol Serum Blank, 0 μg%): 14,325 CPM and 15,110 CPM
C[C@]12CC[C@H]3[C@@H](CCC4=CC(=O)CC[C@@]43C)[C@@H]1CC[C@@H]2O [testosterone] | – | – | – | – | standard curve (bound radioactivity), in words (antitestosterone): virtually straight-line standard curve
c1ccccc1 [Benzene, benzene] | 56 | 52 | 34 | – | –
CCOC(C)=O [Ethyl Acetate, ethyl acetate] | 54 | 41 | 38 | 62 | –
CC(C)=O [Acetone, acetone] | 55 | 36 | 43 | – | –
